Data as given in PubChem BioAssay AID330 (DTP/NCI, 2004).
Several values for one entry are separate records, joined by “and”; a condition that tells them apart may be missing. Equal values may be shown once. Toxic doses and inconclusive results are not listed.

System: P388 leukemia ip, CD2F1 mice, survival T/C
Assay: NCI In Vivo Anticancer Drug Screen. Data for tumor model P388 Leukemia (intraperitoneal) in CD2F1 (CDF1) mice
Details: endpoint: median survival time, higher = longer survival
How it was run: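 Mice carrying the transplanted tumor received test compound or vehicle. Survival was recorded in each group, and the value is the treated-group measurement divided by that of the vehicle-treated control group.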

[1] = dose: 60.0 mg/kg/injection, schedule: Q01DX005 (ip), vehicle: saline with Tween-80
[2] = dose: 120.0 mg/kg/injection, schedule: Q01DX005 (ip), vehicle: saline with Tween-80
[3] = dose: 240.0 mg/kg/injection, schedule: Q01DX005 (ip), vehicle: saline with Tween-80

CC1C(c2ccccc2)OCCN1C=NC#N (stereo not drawn)
T/C (dose: 50.0 mg/kg/injection, schedule: Q01DX009 (ip), vehicle: Klucel (hydroxypropylcellulose) (HPC)): 102 % of control
T/C (dose: 100.0 mg/kg/injection, schedule: Q01DX009 (ip), vehicle: Klucel (hydroxypropylcellulose) (HPC)): 103 % of control
T/C (dose: 200.0 mg/kg/injection, schedule: Q01DX009 (ip), vehicle: Klucel (hydroxypropylcellulose) (HPC)): 103 % of control

CCOC(=O)c1ccc(NC(=O)OC2CCCC2)cc1
T/C [1]: 92 % of control
T/C [2]: 90 % of control
T/C [3]: 89 % of control

Clc1c(Cl)c(Cl)c(C[n+]2ccccc2)c(Cl)c1Cl
T/C (dose: 6.25 mg/kg/injection, schedule: Q01DX009 (ip), vehicle: saline): 105 % of control
T/C (dose: 12.5 mg/kg/injection, schedule: Q01DX009 (ip), vehicle: saline): 98 % of control
T/C (dose: 25.0 mg/kg/injection, schedule: Q01DX009 (ip), vehicle: saline): 102 % of control
T/C (dose: 50.0 mg/kg/injection, schedule: Q01DX009 (ip), vehicle: saline): 99 % of control

COc1cc(/C=C/c2nnc3c4ccccc4cnn23)cc(OC)c1OC
T/C (dose: 12.5 mg/kg/injection, schedule: Q01DX009 (ip), vehicle: saline with Tween-80): 99 % of control
T/C (dose: 25.0 mg/kg/injection, schedule: Q01DX009 (ip), vehicle: saline with Tween-80): 100 % of control
T/C (dose: 50.0 mg/kg/injection, schedule: Q01DX009 (ip), vehicle: saline with Tween-80): 101 % of control and 91 % of control
T/C (dose: 100.0 mg/kg/injection, schedule: Q01DX009 (ip), vehicle: saline with Tween-80): 93 % of control
T/C (dose: 200.0 mg/kg/injection, schedule: Q01DX009 (ip), vehicle: saline with Tween-80): 94 % of control

CNC(=O)C1OCCOCCOC(C(=O)NC)C(C(=O)NC)OCCOCCOC1C(=O)NC (stereo not drawn)
T/C (dose: 50.0 mg/kg/injection, schedule: Q01DX005 (ip), vehicle: Klucel (hydroxypropylcellulose) (HPC)): 96 % of control
T/C (dose: 100.0 mg/kg/injection, schedule: Q01DX005 (ip), vehicle: Klucel (hydroxypropylcellulose) (HPC)): 98 % of control
T/C (dose: 200.0 mg/kg/injection, schedule: Q01DX005 (ip), vehicle: Klucel (hydroxypropylcellulose) (HPC)): 97 % of control

COc1ccc(/C=C/C(=O)C(CN(C)C)CN(C)C)cc1OC
T/C (dose: 0.78 mg/kg/injection, schedule: Q01DX005 (ip), vehicle: Klucel (hydroxypropylcellulose) (HPC)): 106 % of control
T/C (dose: 1.56 mg/kg/injection, schedule: Q01DX005 (ip), vehicle: Klucel (hydroxypropylcellulose) (HPC)): 102 % of control
T/C (dose: 3.12 mg/kg/injection, schedule: Q01DX005 (ip), vehicle: Klucel (hydroxypropylcellulose) (HPC)): 104 % of control

NCCNC(c1ccccc1)C(O)c1ccccc1 (stereo not drawn)
T/C (dose: 50.0 mg/kg/injection, schedule: Q04DX002 (ip), vehicle: Klucel (hydroxypropylcellulose) (HPC)): 102 % of control
T/C (dose: 100.0 mg/kg/injection, schedule: Q04DX002 (ip), vehicle: Klucel (hydroxypropylcellulose) (HPC)): 100 % of control

CC(C)COP(=O)([O-])OCC[N+](C)(C)C
T/C (dose: 100.0 mg/kg/injection, schedule: Q01DX001 (ip), vehicle: Klucel (hydroxypropylcellulose) (HPC)): 104 % of control
T/C (dose: 200.0 mg/kg/injection, schedule: Q01DX001 (ip), vehicle: Klucel (hydroxypropylcellulose) (HPC)): 98 % of control
T/C (dose: 400.0 mg/kg/injection, schedule: Q01DX001 (ip), vehicle: Klucel (hydroxypropylcellulose) (HPC)): 100 % of control

COc1ccc(CC2C(=O)OC(C)C(NC(=O)C(CC(C)C)N(C)C(=O)C3CCCN3C(=O)C(C)O)C(=O)NC(C(C)C)C(O)CC(=O)OC(C(C)C)C(=O)C(C)C(=O)NC(CC(C)C)C(=O)N3CCCC3C(=O)N2C)cc1 (stereo not drawn)
T/C (dose: 37.5 micrograms/kg/injection, schedule: Q01DX005 (ip), vehicle: distilled water + alcohol): 122 % of control
T/C (dose: 250.0 micrograms/kg/injection, schedule: Q01DX005 (ip), vehicle: distilled water + alcohol): 160 % of control
T/C (dose: 500.0 micrograms/kg/injection, schedule: Q01DX005 (ip), vehicle: distilled water + alcohol): 166 % of control

COc1ccc(/C=C2/C(=O)N(c3ccccc3)N=C2C)cc1OC
T/C (dose: 60.0 mg/kg/injection, schedule: Q01DX005 (ip), vehicle: Klucel (hydroxypropylcellulose) (HPC)): 101 % of control
T/C (dose: 120.0 mg/kg/injection, schedule: Q01DX005 (ip), vehicle: Klucel (hydroxypropylcellulose) (HPC)): 93 % of control
T/C (dose: 240.0 mg/kg/injection, schedule: Q01DX005 (ip), vehicle: Klucel (hydroxypropylcellulose) (HPC)): 90 % of control

CCOC(=O)C(C#N)C(=N)C1CC(C)(C)OC1=O (stereo not drawn)
T/C [1]: 100 % of control
T/C [2]: 103 % of control
T/C [3]: 94 % of control

CC(C)(Br)C(=O)/C=C/c1ccccc1
T/C [1]: 105 % of control
T/C [2]: 115 % of control

Cc1ccc(S(=O)(=O)NC(=O)NC(=S)c2cccs2)cc1
T/C (dose: 50.0 mg/kg/injection, schedule: Q01DX001 (ip), vehicle: saline with Tween-80): 98 % of control
T/C (dose: 100.0 mg/kg/injection, schedule: Q01DX001 (ip), vehicle: saline with Tween-80): 97 % of control
T/C (dose: 200.0 mg/kg/injection, schedule: Q01DX001 (ip), vehicle: saline with Tween-80): 91 % of control

O=C(NC1c2ccccc2Oc2ccccc21)OC1CCCCC1
T/C (dose: 50.0 mg/kg/injection, schedule: Q01DX005 (ip), vehicle: saline with Tween-80): 92 % of control
T/C (dose: 100.0 mg/kg/injection, schedule: Q01DX005 (ip), vehicle: saline with Tween-80): 96 % of control
T/C (dose: 200.0 mg/kg/injection, schedule: Q01DX005 (ip), vehicle: saline with Tween-80): 100 % of control
